{"source": "paper PMC8844914", "about": "“Structural Basis for the Peptidoglycan-Editing Activity of YfiH” (mBio, 2022)", "key": {"MurC": {"molecular_target": "T1, MurC (Escherichia coli, UniProt P17952)", "T1 construct": "C-terminal 6xHis tag (pET21a), expressed in E. coli BL21(DE3)", "assay": "ligase reaction, product UDP-MurNAc-Gly by mass spectrometry", "format": "biochemical", "conditions": "18 mM Gly, 1 mM UDP-MurNAc, 5 mM ATP, 20 uM MurC, 24 h; low yield"}, "YfiH (PgeF) [1]": {"molecular_target": "T2, YfiH (PgeF) (Escherichia coli, UniProt P33644, C107A)", "T2 construct": "full length, C-terminal 6xHis tag (pET21a), expressed in E. coli BL21(DE3); Met1 not seen in crystal", "T2 sequence (P33644 whole entry C107A)": "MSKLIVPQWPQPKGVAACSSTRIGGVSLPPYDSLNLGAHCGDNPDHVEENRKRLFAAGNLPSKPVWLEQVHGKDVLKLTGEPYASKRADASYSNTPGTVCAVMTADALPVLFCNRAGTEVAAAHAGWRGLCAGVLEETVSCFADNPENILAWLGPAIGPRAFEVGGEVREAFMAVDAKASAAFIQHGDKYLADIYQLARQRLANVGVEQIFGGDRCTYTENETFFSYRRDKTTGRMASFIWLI", "assay": "X-ray crystal structure, […] A", "format": "binding", "conditions": "endogenous ligand copurified from E. coli; pH 5.4; active-site groove"}, "MurD": {"molecular_target": "T3, MurD (Escherichia coli, UniProt P14900)", "T3 construct": "C-terminal 6xHis tag (pET21a), expressed in E. coli BL21(DE3)", "T3 sequence (P14900 2-438)": "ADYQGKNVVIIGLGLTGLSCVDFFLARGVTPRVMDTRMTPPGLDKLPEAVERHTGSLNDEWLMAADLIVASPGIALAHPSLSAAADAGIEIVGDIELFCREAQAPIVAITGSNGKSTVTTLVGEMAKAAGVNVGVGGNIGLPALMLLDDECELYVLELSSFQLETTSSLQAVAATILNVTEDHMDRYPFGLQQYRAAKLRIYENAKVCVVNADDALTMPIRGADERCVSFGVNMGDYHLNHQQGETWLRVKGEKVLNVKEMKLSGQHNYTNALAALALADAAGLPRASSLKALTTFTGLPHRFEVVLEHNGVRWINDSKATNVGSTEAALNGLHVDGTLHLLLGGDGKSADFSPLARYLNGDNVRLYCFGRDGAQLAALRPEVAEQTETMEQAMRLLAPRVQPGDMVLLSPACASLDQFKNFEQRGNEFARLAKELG", "assay": "ligase reaction, product by HPLC and ESI-MS", "format": "biochemical", "conditions": "2 mM D-glutamate, 5 mM ATP, 10 mM MgCl2, pH 8.0, 37 C; preparative synthesis with MurC and MurD"}, "YfiH (PgeF) [2]": {"molecular_target": "T2, YfiH (PgeF)", "assay": "X-ray crystal structure, […] A", "format": "binding", "conditions": "soaked into YfiH-C107A crystals; pH 5.4; active-site groove"}}, "data": [{"smiles": "NCC(=O)O", "note": "[Gly, glycine]", "values": [{"measurement": "ligase reaction, product UDP-MurNAc-Gly by mass spectrometry", "setting": "MurC", "result": "enzymatic synthesis with MurC, using glycine as a substrate"}]}, {"smiles": "CC(=O)N[C@H]1[C@@H](OP(=O)(O)OP(=O)(O)OC[C@H]2O[C@@H](n3ccc(=O)[nH]c3=O)[C@H](O)[C@@H]2O)O[C@H](CO)[C@@H](O)[C@@H]1O[C@H](C)C(=O)O", "note": "[UM, UDP-MurNAc]", "values": [{"measurement": "X-ray crystal structure, 1.47 A", "setting": "YfiH (PgeF) [1]", "result": "This compound was unambiguously identified as UDP-MurNAc based on its high-resolution map"}]}, {"smiles": "CC(=O)N[C@H]1[C@@H](OP(=O)(O)OP(=O)(O)OC[C@H]2O[C@@H](n3ccc(=O)[nH]c3=O)[C@H](O)[C@@H]2O)O[C@H](CO)[C@@H](O)[C@@H]1O[C@H](C)C(=O)N[C@@H](C)C(=O)O", "note": "[UMA, UDP–MurNAc–L-Ala]", "values": [{"measurement": "ligase reaction, product by HPLC and ESI-MS", "setting": "MurD", "result": "we further synthesized UDP–MurNAc–L-Ala–D-Glu (UMAE)"}]}, {"smiles": "CC(=O)N[C@H]1[C@@H](OP(=O)(O)OP(=O)(O)OC[C@H]2O[C@@H](n3ccc(=O)[nH]c3=O)[C@H](O)[C@@H]2O)O[C@H](CO)[C@@H](O)[C@@H]1O[C@H](C)C(=O)N[C@@H](CO)C(=O)O", "note": "[UMS, UDP–MurNAc–L-Ser]", "values": [{"measurement": "X-ray crystal structure, 1.86 A", "setting": "YfiH (PgeF) [2]", "result": "we obtained the crystals of YfiH bound to UDP–MurNAc–L-Ser"}, {"measurement": "ligase reaction, product by HPLC and ESI-MS", "setting": "MurD", "result": "UDP–MurNAc–L-Ser–D-Glu (UMSE) with recombinant MurD"}]}]}
